Measured values published in patent US9695155B2, “Herbicidal substituted pyrimidinyloxy benzene compounds” (E. I. DU PONT DE NEMOURS AND COMPANY, priority 2013, dated 2017).

How the values were obtained:
galium [1] = assay: Test C preemergence; assay type: in vivo, Galium aparine; conditions: for Galium plant response rating: preemergence
In short: (§1)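 Rated visually on 0–100 (100 = complete control) after 13–15 days under glass. Treatments went onto freshly seeded loam/sand soil or onto emerged plants at the 1- to 4-leaf stage, using a surfactant-containing solvent formulation.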

barnyardgrass = assay: Test C preemergence; assay type: in vivo, Echinochloa crus-galli; conditions: for Barnyardgrass plant response rating: preemergence
In short: as §1

Italian ryegrass [2] = assay: Test A postemergence; assay type: in vivo, Lolium multiflorum
In short: (§2)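 Scoring: eye-based comparison with untreated controls, 0 for no effect through 100 for complete control, at about day 10. Treatments: directed soil spray preemergence; foliar spray postemergence on 2–10 cm plants at the one- to two-leaf stage. Medium: loam soil with sand.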

pigweed = assay: Test C preemergence; assay type: in vivo, Amaranthus retroflexus; conditions: for Pigweed plant response rating: preemergence
In short: as §1

blackgrass [3] = assay: Test A postemergence; assay type: in vivo, Alopecurus myosuroides
In short: as §2

corn = assay: Test C preemergence; assay type: in vivo, Zea mays; conditions: for Corn plant response rating: preemergence
In short: as §1

blackgrass [4] = assay: Test C preemergence; assay type: in vivo, Alopecurus myosuroides; conditions: for Blackgrass plant response rating: preemergence
In short: as §1

ragweed [5] = assay: Test A preemergence; assay type: in vivo, Ambrosia elatior
In short: as §2

yellow nutsedge = assay: Test C preemergence; assay type: in vivo, Cyperus esculentus; conditions: for Nutsedge, Yellow plant response rating: preemergence
In short: as §1

johnsongrass = assay: Test C preemergence; assay type: in vivo, Sorghum halepense; conditions: for Johnsongrass plant response rating: preemergence
In short: as §1

large (Lg) crabgrass = assay: Test C preemergence; assay type: in vivo, Digitaria sanguinalis; conditions: for Crabgrass, Large plant response rating: preemergence
In short: as §1

lambsquarters = assay: Test C preemergence; assay type: in vivo, Chenopodium album; conditions: for Lambsquarters plant response rating: preemergence
In short: as §1

Italian ryegrass [6] = assay: Test A preemergence; assay type: in vivo, Lolium multiflorum
In short: as §2

ragweed [7] = assay: Test C preemergence; assay type: in vivo, Ambrosia elatior; conditions: for Ragweed plant response rating: preemergence
In short: as §1

waterhemp = assay: Test C preemergence; assay type: in vivo, Amaranthus rudis; conditions: for Waterhemp plant response rating: preemergence
In short: as §1

giant foxtail = assay: Test C preemergence; assay type: in vivo, Setaria faberii; conditions: for Foxtail, Giant plant response rating: preemergence
In short: as §1

oilseed rape = assay: Test C preemergence; assay type: in vivo, Brassica napus; conditions: for Oilseed Rape plant response rating: preemergence
In short: as §1

galium [8] = assay: Test A postemergence; assay type: in vivo, Galium aparine
In short: as §2

[9] = 16 g ai/ha, scale 0 to 100 (0 no effect, 100 complete control)
[10] = 125 g ai/ha, scale 0 (no effect) to 100 (complete control)
[11] = Preemergence, 62 g ai/ha, scale 0 to 100, 0 no effect, 100 complete control
[12] = 125 g ai/ha, 0 to 100 scale, 0 no effect, 100 complete control
[13] = 500 g ai/ha, 0 to 100 scale where 0 is no effect and 100 is complete control

SMILES: N#Cc1cnn(-c2c(Oc3ncc(F)cn3)cccc2C(F)F)c1 [Compound 240]
- Galium plant response rating (galium [1]; [9]): 5
- Galium plant response rating (galium [1]; [10]): 100
- Plant response rating, Galium (galium [1]; [11]): 100
- Barnyardgrass plant response rating (barnyardgrass; [9]): 5
- Barnyardgrass plant response rating (barnyardgrass; [10]): 100
- Plant response rating, Barnyardgrass (barnyardgrass; [11]): 60
- Plant response rating, Ryegrass, Italian (Italian ryegrass [2]; [12]): 40
- Plant response rating, Ryegrass, Italian (Italian ryegrass [2]; [13]): 100
- Pigweed plant response rating (pigweed; [9]): 5
- Pigweed plant response rating (pigweed; [10]): 65
- Plant response rating, Pigweed (pigweed; [11]): 55
- Plant response rating, Blackgrass (blackgrass [3]; [12]): 90
- Plant response rating, Blackgrass (blackgrass [3]; [13]): 100
- Corn plant response rating (corn; [9]): 5
- Corn plant response rating (corn; [10]): 35
- Plant response rating, Corn (corn; [11]): 5
- Blackgrass plant response rating (blackgrass [4]; [9]): 0
- Blackgrass plant response rating (blackgrass [4]; [10]): 95
- Plant response rating, Blackgrass (blackgrass [4]; [11]): 95
- Ragweed plant response rating (0 to 100 scale) (ragweed [5]; 125 g ai/ha): 90
- Ragweed plant response rating (ragweed [5]; [13]): 100
- Nutsedge, Yellow plant response rating (yellow nutsedge; [9]): 0
- Nutsedge, Yellow plant response rating (yellow nutsedge; [10]): 40
- Plant response rating, Nutsedge, Yellow (yellow nutsedge; [11]): 15
- Johnsongrass plant response rating (johnsongrass; [9]): 5
- Johnsongrass plant response rating (johnsongrass; [10]): 45
- Plant response rating, Johnsongrass (johnsongrass; [11]): 10
- Crabgrass, Large plant response rating (large (Lg) crabgrass; [9]): 75
- Crabgrass, Large plant response rating (large (Lg) crabgrass; [10]): 100
- Plant response rating, Crabgrass, Large (large (Lg) crabgrass; [11]): 100
- Lambsquarters plant response rating (lambsquarters; [9]): 70
- Lambsquarters plant response rating (lambsquarters; [10]): 100
- Plant response rating, Lambsquarters (lambsquarters; [11]): 100
- Ryegrass, Italian plant response rating (0 to 100 scale) (Italian ryegrass [6]; 125 g ai/ha): 20
- Ryegrass, Italian plant response rating (Italian ryegrass [6]; [13]): 70
- Ragweed plant response rating (ragweed [7]; [9]): 10
- Ragweed plant response rating (ragweed [7]; [10]): 80
- Plant response rating, Ragweed (ragweed [7]; [11]): 100
- Waterhemp plant response rating (waterhemp; [9]): 50
- Waterhemp plant response rating (waterhemp; [10]): 100
- Plant response rating, Waterhemp (waterhemp; [11]): 100
- Foxtail, Giant plant response rating (giant foxtail; [9]): 10
- Foxtail, Giant plant response rating (giant foxtail; [10]): 100
- Plant response rating, Foxtail, Giant (giant foxtail; [11]): 100
- Oilseed Rape plant response rating (oilseed rape; [9]): 70
- Oilseed Rape plant response rating (oilseed rape; [10]): 100
- Plant response rating, Oilseed Rape (oilseed rape; [11]): 100
- Plant response rating, Galium (galium [8]; [12]): 100
- Plant response rating, Galium (galium [8]; [13]): 100
